*1 amine or outer side, *2 acyl side, *3 side chain or, on linkers, in order; H or OH if unused. Where a SMILES comes first, the peptide text is derived from it. Side-chain parts run from the residue outwards. [ ]: non-standard residue; d: D form. The star is where a group is joined. C20 diacid = O=C(O)CCCCCCCCCCCCCCCCCCC(=O)*; γGlu = O=C(O)[C@H](CCC(=O)[*:2])N[*:1]; AEEA = NCCOCCOCC(=O)O; Aib = CC(C)(N)C(=O)O
Legend:
[1] = test system: DIO mice; test: Food intake ration of diet-induced obese mice; type: in vivo, C57BL/6 mice
Method: (§1) High-fat food-induced obese male C57BL/6 mice (weighing 35-55 g, aged 10-12 weeks, purchased from Shanghai Jiesijie Laboratory Animal Co., Ltd.) were tested. […] According to the experimental design, the body weight of each mouse was measured and recorded on day 0, day 3, day 6 and so on to day 27, the average body weight of each group of mice was calculated, and weight change curves were plotted by taking the body weight on the first day as the standard. At the end, the fat and other visceral organs of each part of the mice were taken out and weighed, and the viscera/brain ratio for fat in each part of each mouse was calculated. The effect of the drug on the fat was determined by comparing the change in the organ/brain ratio for fat of different parts of each group of mice.
The food intake ration of mice in each group was measured daily during the test.

[2] = test system: diet-induced obese mice; test: Body weight and fat mass in diet-induced obese mice; type: in vivo, C57BL/6 mice; conditions: for rate of change in body weight / viscera/brain ratio for fat mass, Epididymal fat / viscera/brain ratio for fat mass, Inguinal fat / viscera/brain ratio for fat mass, Mesenteric fat / viscera/brain ratio for fat mass, Perirenal fat / viscera/brain ratio for fat mass, Scapular fat / viscera/brain ratio for fat mass, Subcutaneous fat: DIO mice; for viscera/brain ratio for fat mass, Epididymal fat / viscera/brain ratio for fat mass, Inguinal fat / viscera/brain ratio for fat mass, Mesenteric fat / viscera/brain ratio for fat mass, Perirenal fat / viscera/brain ratio for fat mass, Scapular fat / viscera/brain ratio for fat mass, Subcutaneous fat: end of study
Method: as §1

[3] = test system: db/db mice; test: Glucose metabolism level in db/db mice; type: in vivo, C57BL/KsJ-db/db mice
Method: Each administration group contained 10 db/db mice. According to the experimental design, tail vein blood was collected by needle pricking on days 0, 7, 14, 21 and 28 and determined for fasting blood glucose levels with a glucometer and glucose dipsticks, and the mice were fasted 6 h prior to the blood collection at each time point. Tail vein blood was collected by needle pricking on days 3, 10, 17, 24 and 27 and randomly determined for blood glucose levels with a glucometer. Finally, at the end of the experiment on day 28, all the animals in the administration groups were subjected to 2-5% isoflurane inhalation anesthesia, and 100 μL of EDTA-K2 anticoagulated whole blood was collected through the orbit of each mouse and used for the determination of glycated hemoglobin.

CC[C@H](C)[C@H](NC(=O)[C@H](CCCCN)NC(=O)[C@H](CCC(=O)O)NC(=O)[C@H](CCCCNC(=O)COCCOCCNC(=O)COCCOCCNC(=O)CC[C@H](NC(=O)CCCCCCCCCCCCCCCCCCC(=O)O)C(=O)O)NC(=O)[C@H](Cc1ccc(O)cc1)NC(=O)[C@@H](NC(=O)[C@H](CO)NC(=O)[C@H](Cc1ccc(O)cc1)NC(=O)[C@H](CC(=O)O)NC(=O)[C@H](CO)NC(=O)[C@@H](NC(=O)[C@H](Cc1ccccc1)NC(=O)[C@@H](NC(=O)CNC(=O)[C@H](CCC(=O)O)NC(=O)C(C)(C)NC(=O)[C@@H](N)Cc1ccc(O)cc1)[C@@H](C)O)[C@@H](C)O)[C@@H](C)CC)C(=O)N[C@@H](C)C(=O)N[C@@H](C)C(=O)N[C@@H](CCC(N)=O)C(=O)N[C@@H](CCC(=O)O)C(=O)N[C@@H](Cc1ccccc1)C(=O)N[C@H](C(=O)N[C@@H](CC(N)=O)C(=O)N[C@@H](Cc1c[nH]c2ccccc12)C(=O)N[C@@H](CC(C)C)C(=O)N[C@@H](CC(C)C)C(=O)N[C@@H](C)C(=O)NCC(=O)NCC(=O)N1CCC[C@H]1C(=O)N[C@@H](CO)C(=O)N[C@@H](CO)C(=O)NCC(=O)N[C@@H](C)C(=O)N1CCC[C@H]1C(=O)N1CCC[C@H]1C(=O)N1CCC[C@H]1C(=O)N[C@@H](CO)C(N)=O)C(C)C [Compound 18#] (H-Y[Aib]EGTFTSDYSIYK([AEEA-AEEA-γGlu-C20 diacid])EKIAAQEFVNWLLAGGPSSGAPPPS-NH2)
daily food intake ration ([1]; 3 nmol/kg sc, day 3 after administration): 2 ± 0.5 g | cumulative food intake ration ([1]; 3 nmol/kg, 28 days after the administration): 58.2 g | cumulative food intake ration ([1]; 3 nmol/kg, within 5 days after the administration): 7.2 g | daily food intake ration ([1]; 10 nmol/kg sc, day 9 after administration): 2 ± 0.6 g | daily food intake ration ([1]; 10 nmol/kg sc, day 15 after administration): 3 ± 0.9 g | daily food intake ration ([1]; 10 nmol/kg sc, day 20 after administration): 2 ± 0.5 g | cumulative food intake ration ([1]; 10 nmol/kg, 28 days after the administration): 46.8 g | cumulative food intake ration ([1]; 10 nmol/kg, within 5 days after the administration): 3.9 g | daily food intake ration ([1]; 100 nmol/kg sc, day 15 after administration): 2 ± 0.4 g | daily food intake ration ([1]; 100 nmol/kg sc, day 18 after administration): 2 ± 0.4 g | cumulative food intake ration ([1]; 100 nmol/kg, 28 days after the administration): 36.7 g | cumulative food intake ration ([1]; 100 nmol/kg, within 5 days after the administration): 1.8 g | rate of change in body weight ([2]; 3 nmol/kg sc, day 1 after administration): −5 ± 0.6% | rate of change in body weight ([2]; 3 nmol/kg sc, day 6 after administration): −10 ± 4.4 % | rate of change in body weight ([2]; 3 nmol/kg sc, day 7 after administration): −13 ± 5.3 % | viscera/brain ratio for fat mass, Epididymal fat ([2]; 3 nmol/kg sc): 254.6 ± 113.4 % | viscera/brain ratio for fat mass, Inguinal fat ([2]; 3 nmol/kg sc): 281.5 ± 140.1 % | viscera/brain ratio for fat mass, Mesenteric fat ([2]; 3 nmol/kg sc): 84.8 ± 41.3 % | viscera/brain ratio for fat mass, Perirenal fat ([2]; 3 nmol/kg sc): 159.2 ± 87.6 % | viscera/brain ratio for fat mass, Scapular fat ([2]; 3 nmol/kg sc): 48 ± 15.3% | viscera/brain ratio for fat mass, Subcutaneous fat ([2]; 3 nmol/kg sc): 120 ± 62 % | rate of change in body weight ([2]; 10 nmol/kg sc, day 6 after administration): −15 ± 5.3 % | rate of change in body weight ([2]; 10 nmol/kg sc, day 24 after administration): −26 ± 7.1 % | viscera/brain ratio for fat mass, Epididymal fat ([2]; 10 nmol/kg sc): 211.7 ± 80.7 % | viscera/brain ratio for fat mass, Inguinal fat ([2]; 10 nmol/kg sc): 194.4 ± 86.2 % | viscera/brain ratio for fat mass, Mesenteric fat ([2]; 10 nmol/kg sc): 53.3 ± 14.6 % | viscera/brain ratio for fat mass, Perirenal fat ([2]; 10 nmol/kg sc): 109.4 ± 57.1 % | viscera/brain ratio for fat mass, Scapular fat ([2]; 10 nmol/kg sc): 42.5 ± 17^ % | viscera/brain ratio for fat mass, Subcutaneous fat ([2]; 10 nmol/kg sc): 122 ± 73.2 % | rate of change in body weight ([2]; 100 nmol/kg sc, day 20 after administration): −39 ± 6.5 % | rate of change in body weight ([2]; 100 nmol/kg sc, day 23 after administration): −38 ± 5.9 % | viscera/brain ratio for fat mass, Epididymal fat ([2]; 100 nmol/kg sc): 102.9 ± 32.2 % | viscera/brain ratio for fat mass, Inguinal fat ([2]; 100 nmol/kg sc): 92 ± 34.5 % | viscera/brain ratio for fat mass, Mesenteric fat ([2]; 100 nmol/kg sc): 27.4 ± 11.1 % | viscera/brain ratio for fat mass, Perirenal fat ([2]; 100 nmol/kg sc): 46.6 ± 18.2 % | viscera/brain ratio for fat mass, Scapular fat ([2]; 100 nmol/kg sc): 32.3 ± 7% | viscera/brain ratio for fat mass, Subcutaneous fat ([2]; 100 nmol/kg sc): 57.1 ± 21.2 % | body weight reduced by ([2]; high-fat food-induced obese mice, 10 nmol/kg, day 27, text): more than 20.0% | Concentration of fasting blood glucose ([3]; 10 nmol/kg sc, Day 0): 14.77 ± 1.30 mmol/L | Concentration of random blood glucose ([3]; 10 nmol/kg sc, Day 0): 20.42 ± 1.56 mmol/L | Concentration of fasting blood glucose ([3]; 10 nmol/kg sc, Day 7): 6.05 ± 0.42 mmol/L | Concentration of random blood glucose ([3]; 10 nmol/kg sc, Day 10): 20.66 ± 1.48 mmol/L | Concentration of fasting blood glucose ([3]; 10 nmol/kg sc, Day 14): 6.30 ± 0.46 mmol/L | Concentration of random blood glucose ([3]; 10 nmol/kg sc, Day 17): 18.91 ± 1.33 mmol/L | Concentration of fasting blood glucose ([3]; 10 nmol/kg sc, Day 21): 7.89 ± 0.81 mmol/L | Concentration of random blood glucose ([3]; 10 nmol/kg sc, Day 24): 21.17 ± 2.07 mmol/L | Concentration of fasting blood glucose ([3]; 10 nmol/kg sc, Day 28): 9.41 ± 0.97 mmol/L | Glycated hemoglobin ([3]; 10 nmol/kg sc, day 28): 4.71 ± 0.23 % | Concentration of fasting blood glucose ([3]; 30 nmol/kg sc, Day 0): 14.13 ± 1.32 mmol/L | Concentration of random blood glucose ([3]; 30 nmol/kg sc, Day 0): 16.73 ± 1.59 mmol/L | Concentration of fasting blood glucose ([3]; 30 nmol/kg sc, Day 7): 6.21 ± 0.26 mmol/L | Concentration of random blood glucose ([3]; 30 nmol/kg sc, Day 10): 15.88 ± 1.86 mmol/L | Concentration of fasting blood glucose ([3]; 30 nmol/kg sc, Day 14): 6.40 ± 0.57 mmol/L | Concentration of random blood glucose ([3]; 30 nmol/kg sc, Day 17): 17.30 ± 1.17 mmol/L | Concentration of fasting blood glucose ([3]; 30 nmol/kg sc, Day 21): 7.03 ± 0.52 mmol/L | Concentration of random blood glucose ([3]; 30 nmol/kg sc, Day 24): 17.43 ± 1.92 mmol/L | Concentration of fasting blood glucose ([3]; 30 nmol/kg sc, Day 28): 9.68 ± 1.03 mmol/L | Glycated hemoglobin ([3]; 30 nmol/kg sc, day 28): 4.53 ± 0.17 % | Concentration of fasting blood glucose ([3]; 100 nmol/kg sc, Day 0): 14.67 ± 1.46 mmol/L | Concentration of random blood glucose ([3]; 100 nmol/kg sc, Day 0): 9.11 ± 1.25 mmol/L | Concentration of fasting blood glucose ([3]; 100 nmol/kg sc, Day 7): 5.85 ± 0.33 mmol/L | Concentration of random blood glucose ([3]; 100 nmol/kg sc, Day 10): 12.34 ± 1.12 mmol/L | Concentration of fasting blood glucose ([3]; 100 nmol/kg sc, Day 14): 6.25 ± 0.32 mmol/L | Concentration of random blood glucose ([3]; 100 nmol/kg sc, Day 17): 11.89 ± 1.15 mmol/L | Concentration of fasting blood glucose ([3]; 100 nmol/kg sc, Day 21): 6.13 ± 0.19 mmol/L | Concentration of random blood glucose ([3]; 100 nmol/kg sc, Day 24): 11.51 ± 0.95 mmol/L | Concentration of fasting blood glucose ([3]; 100 nmol/kg sc, Day 28): 7.89 ± 0.41 mmol/L | Glycated hemoglobin ([3]; 100 nmol/kg sc, day 28, listed as 18 #): 3.78% | Glycated hemoglobin ([3]; 100 nmol/kg sc, day 28, listed as #18): 3.78 ± 0.13 %

Reference: patent publication US12653865B2, “Dual-agonist compound for both GLP-1 and GIP receptors and application thereof” (Jiangsu Hengrui Pharmaceuticals Co., Ltd., priority 2020, dated 2026)
